In PMC3356977, “Chemical Inhibition of Bacterial Protein Tyrosine Phosphatase Suppresses Capsule Production” (PLoS ONE, 2012) one finds IC50 data, which are given here for one molecule.

The IC50 is the point on the concentration scale where inhibition reaches its midpoint. Low values mean higher potency, high ones lower potency.

The experiment addresses T1, CpsB (Streptococcus pneumoniae, UniProt Q9AHD4).
T1 construct: His6CpsB
Put plainly: inhibition of pNPP dephosphorylation by purified His6CpsB (A410). In kind it is biochemical.

T1 sequence (Q9AHD4 whole entry, looked up): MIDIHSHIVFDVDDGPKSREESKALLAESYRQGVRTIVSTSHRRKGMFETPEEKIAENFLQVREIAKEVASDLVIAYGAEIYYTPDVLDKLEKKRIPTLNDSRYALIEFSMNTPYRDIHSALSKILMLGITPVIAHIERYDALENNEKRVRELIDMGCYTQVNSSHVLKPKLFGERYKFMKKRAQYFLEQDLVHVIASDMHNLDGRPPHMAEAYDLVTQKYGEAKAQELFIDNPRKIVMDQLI

`CC(C)=CCC/C(C)=C/CC/C(C)=C/CC/C(C)=C/Cc1cc(OS(=O)(=O)O)ccc1O` [FQE, fascioquinol E] returned an IC50 of 5.21 µM.
